From patent publication US8138191B2, “Inhibitor compounds and cancer treatment methods” (Critical Outcome Technologies Inc., priority 2007, dated 2012)
Like-named read-outs stand apart in the source and are kept apart here.

Key:
U87 = assay: IC50 human glioma/astrocytoma cell lines (alamar Blue), U87
SNB-19 = assay: IC50 human glioma/astrocytoma cell lines (alamar Blue), SNB-19
[1] = tested on: SHP-77 human SCLC cell line tumor xenografts; assay: Nude mouse model of human SCLC, SHP-77 xenografts; format: in vivo; settings: for average number of tumors per injection site / mean tumor volume: IP on alternate days from Day 3, 31 days
Protocol: The nude mouse model of human SCLC was used to evaluate the in vivo efficacy of compounds of the present invention in comparison with several known chemotherapeutic agents. Nude mice were obtained form the National Cancer Institute and the SHP-77 human SCLC cell line was chosen for metastatic tumor xenografts. The control group consisted of 10 animals, each of which were administered bilateral thigh injections of a prescribed volume of tumor cells. There were 6 treatment groups, each containing 5 animals: COTI-2, COTI-4, COTI-219, Taxotere® (docetaxel), Cisplatin® (cis-diamminedichloroplatinum) and Tarceva® (erlotinib) The therapeutic agent was administered by intraperitoneal (IP) injection on alternate days beginning on Day 3 post tumor cell injection. Each animal in a treatment group was administered bilateral thigh injections with the same prescribed volume of tumor cells as the control animals. Treatment continued for 31 days, following which the animals were euthanized and tissues were collected for subsequent analysis.

DMS153 = assay: Resistance testing over 5 generations, DMS153; format: cell-based, human; settings: DMS153, 5 generations
Protocol: (§1) In order to evaluate the induction of resistance in vitro, compounds according to the invention were tested in head to head comparisons against conventional therapeutic agents Cisplatin® and Taxotere®. The compound designated COTI-4 (which is the subject of Applicant's co-pending U.S. provisional patent application entitled “Composition and Method for Treatment” filed Dec. 26, 2007) was also tested. The structure for COTI-4 is:
(§2) IC50 values were obtained using methods known to persons skilled in the art with two different human SCLC cell lines (DMS153 and SHP77) obtained from the National Cancer Institute. […] The procedure was repeated for a total of 5 generations. Emerging resistance was identified by increasing IC50 values in successive generations.

SHP77 = assay: Resistance testing over 5 generations, SHP77; format: cell-based, human; settings: SHP77, 5 generations
Protocol: as §1, §2

CYP2B6 [2] = molecular target: T1, CYP2B6 (Homo sapiens, UniProt P20813); settings: both, 15 min, pH 7.4
T1 sequence (P20813 1-491): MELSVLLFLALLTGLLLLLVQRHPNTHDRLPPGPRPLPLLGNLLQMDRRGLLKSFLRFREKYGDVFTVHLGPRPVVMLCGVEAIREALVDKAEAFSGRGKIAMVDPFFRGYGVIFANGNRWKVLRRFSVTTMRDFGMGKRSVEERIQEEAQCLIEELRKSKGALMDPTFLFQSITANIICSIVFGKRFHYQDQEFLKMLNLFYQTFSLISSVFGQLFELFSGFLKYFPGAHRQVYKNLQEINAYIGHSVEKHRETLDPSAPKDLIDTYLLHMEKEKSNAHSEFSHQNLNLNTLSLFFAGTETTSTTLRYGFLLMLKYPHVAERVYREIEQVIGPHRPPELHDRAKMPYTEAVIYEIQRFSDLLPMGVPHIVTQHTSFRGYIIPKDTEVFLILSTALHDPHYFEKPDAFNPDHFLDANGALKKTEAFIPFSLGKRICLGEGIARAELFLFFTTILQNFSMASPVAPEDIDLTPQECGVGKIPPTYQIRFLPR

CYP2B6 [3] = molecular target: T1, CYP2B6; assay: biochemical
SHP 77 cells = assay: Proliferation with anti-cancer agents plus COTI-2, SHP 77; format: cell-based, human; settings: SHP 77
DMS114 cells = assay: Proliferation with anti-cancer agents plus COTI-2, DMS114; format: cell-based, human; settings: DMS114
[4] = tested on: PI3K activity in SHP77 cells; assay: PI3-K activity (PIP3 detection, Echelon kit), SHP77; format: cell-based, human; settings: SHP77, 50 μM inhibitor + 250 nM COTI-2
Source text: As a negative control, an equivalent volume of DMSO was utilized. […] To measure PI3-K activity, a commercial kit was purchased from Echelon. Following the procedures recommended by the manufacturer, membrane lipids were extracted in several steps and the resulting PIP3 was immobilized to nitrocellulose and measured by its interaction with a PH-domain containing protein and HRP-conjugated antibody supplied with the kit. As an additional control in these experiments, the specific PI3-K inhibitor, LY294002 was used to inhibit PI3-K and thus stop PIP3 production.

[5] = tested on: NCI/DTP 60 cell line panel; settings: NOT including DMS114 and SHP-77; cited from earlier work
U87 glioblastoma cells = assay: Proliferation of U87 glioblastoma cells (alamarBlue), single agents and combinations with temsirolimus or rapamycin; format: cell-based; settings: Homo sapiens; U87, single agent, triplicate experiments
Protocol: In vitro IC50 values were obtained for combinations of compounds of the present invention with temsirolimus or rapamycin in the treatment of U87 glioblastoma cells. Temsirolimus and rapamycin both inhibit proliferation of human U87 glioblastoma cells, as single agents (FIG. 14). […] Both inhibit proliferation of these cells with increasing concentration.
Temsirolimus was provided in liquid form from the London Regional Cancer Program (LRCP) Pharmacy. COTI-219 was prepared as a 50 mM stock in DMSO, then diluted to 10 mM in DMSO followed by serial dilution water for addition to medium overlaying cells. Cells were incubated with temsirolimus in combination with COTI-219 for 4 days (in wells of 96 well plates) followed by analysis of live cell density using the fluorescent vital stain alamarBlue.
All data points are means±SEM (n=6). Error bars are, in every case, smaller than the size of the symbol.
Rapamycin was prepared by crushing and extracting a tablet (supplied from the LRCP Pharmacy) with DMSO, followed by centrifugation to remove particulate matter. COTI-219 was prepared as a 50 mM stock in DMSO, then diluted to 10 mM in DMSO followed by serial dilution water for addition to medium overlaying cells. […]

H292 = assay: CellTiter-Blue growth inhibition, single agents and combinations, H292; format: cell-based; settings: Homo sapiens, NCI-H292; H292, NSCLC, EGFR - WT, 72 h; read-out: Mean IC50, single agent
Protocol: (§3) The stock concentration was further diluted to 1 mM and added to a drug plate. […] Following dilution, 2 μl of test agent was transferred to the corresponding wells of a cell-containing 96-well plate with 198 μl of growth media. Tarceva® (erlotinib) was supplied by LC Labs (Woburn, Mass.).
(§4) Viable cell numbers were quantified by the CellTiter-Blue® cell viability assay, which measures the conversion of the indicator dye (resazurin) to resorufin, an indicator of cell viability. Experiments were repeated at least twice with the same concentrations to determine growth inhibitory activity.
(§5) The CI, a numerical value calculated as described in equation A, also provides a quantitative measure of the extent of drug interaction. A CI of less than, equal to, and more than 1 indicates synergy, additivity, and antagonism, respectively. CI=(CAx/ICx,A)+(CB,x/ICx,B) Equation A: Where CA,x and CB,x, are the concentrations of drug A and drug B used in combination to achieve x % drug effect. ICx,A and ICx,B are the concentrations for single agents to achieve the same effect.

H1975 = assay: CellTiter-Blue growth inhibition, single agents and combinations, H1975; format: cell-based; settings: Homo sapiens, NCI-H1975; H1975, NSCLC, EGFR - MUT, 72 h; read-out: Mean IC50, single agent
Protocol: as §3, §4, §5

COLO-205 = assay: Tumor cell proliferation, single agents and combinations, COLO-205; format: cell-based, human; settings: for IC50: Homo sapiens
Protocol: (§6) The 3 cell lines were treated as follows:
(§7) Day 1: Cells were plated in 96-well flat bottom plates (VWR, Mississauga, ON, Canada) and allowed to adhere overnight.
(§8) All treated and control cells were, therefore, exposed to a 1% DMSO concentration plus the desired concentration of COTI-2.
as §5

HCT-15 = assay: Tumor cell proliferation, single agents and combinations, HCT-15; format: cell-based; settings: Homo sapiens; HCT-15, Colon, KRAS - MUT; read-out: Mean IC50, single agent
Protocol: as §6, §7, §8, §5

SW620 = assay: Tumor cell proliferation, single agents and combinations, SW620; format: cell-based, human; settings: for IC50: Homo sapiens
Protocol: as §6, §7, §8, §5

O=NN(CCCl)C(=O)NCCCl [BCNU, 1,3-Bis(2-chloroethyl)-1-nitrosourea, reference compound]
IC50 (U87; Homo sapiens, U-87 MG): 1.52 µM | IC50 (SNB-19; Homo sapiens, SNB-19): 2.25 µM

N.N.[Cl][Pt][Cl] [Cisplatin, cis-diamminedichloroplatinum, reference compound]
average number of tumors per injection site [1]: 0.48 | mean tumor volume [1]: 132+/−26 mm^3 | emerging resistance: ratio of IC50 to IC50 of parental generation (DMS153): significant increases in IC50 | emerging resistance: ratio of IC50 to IC50 of parental generation (SHP77): significant increases in IC50 | IC50 (U87; U87, 4-7 days): 0.49 µM | IC50 (SNB-19; SNB-19, 4-7 days): 0.87 µM

COC(=O)[C@H](c1ccccc1Cl)N1CCc2sccc2C1 [Clopidogrel]
nH (CYP2B6 [2]): 2.7 | IC50 (CYP2B6 [3]): 0.64 µM

Nc1ccn([C@@H]2O[C@H](CO)[C@@H](O)C2(F)F)c(=O)n1 [Gemcitabine, reference compound]
effect of combination with COTI-2 on proliferation (SHP 77 cells): additive effect | effect of combination with COTI-2 on proliferation (DMS114 cells): additive effect

O=c1cc(N2CCOCC2)oc2c(-c3ccccc3)cccc12 [LY294002, reference compound]
PIP3 detected in the presence of the PI3K-inhibitor [4]: approximately 14 pmol

COc1ccc(NC(=S)N=Nc2c(O)[nH]c3c(Cl)cc(Cl)cc23)cc1 [NSC73306]
Mean Over NCI/DTP 60 cell line panel (LogGI50) [5]: −4.9

Oc1[nH]c2ccccc2c1N=NC(=S)N1CCCCCC1 [NSC668496]
Mean Over NCI/DTP 60 cell line panel (LogGI50) [5]: −6.1

C=CCNC(=S)N=Nc1c(O)n(CN2CCOCC2)c2ccc([N+](=O)[O-])cc12 [NSC716768]
Mean Over NCI/DTP 60 cell line panel (LogGI50) [5]: −4.7

CO[C@H]1C[C@@H]2CC[C@@H](C)[C@@](O)(O2)C(=O)C(=O)N2CCCC[C@H]2C(=O)O[C@H]([C@H](C)C[C@@H]2CC[C@@H](O)[C@H](OC)C2)CC(=O)[C@H](C)/C=C(\C)[C@@H](O)[C@@H](OC)C(=O)[C@H](C)C[C@H](C)/C=C/C=C/C=C/1C [Rapamycin, rapamycin]
IC50 (U87 glioblastoma cells): 9.9 µM

C#Cc1cccc(Nc2ncnc3cc(OCCOC)c(OCCOC)cc23)c1 [Tarceva®, erlotinib]
survival of treated animals to study conclusion ([1]; 31 days): died before study conclusion | IC50 (H292): 0.02 µM | IC50 (H1975): > 100 µM | highest concentration that did not significantly affect growth (COLO-205; COLO 205): 10 µM | IC50 (COLO-205; 96 h, read-out: concentration to reduce growth by 50% (IC50), COLO-205, 4 day assessment): > 10 µM | IC50 (COLO-205; COLO-205, Colon, KRAS - WT, read-out: Mean IC50, single agent): > 10 µM | IC50 (HCT-15): 5.1 µM | IC50 (SW620; SW-620, 96 h, read-out: concentration to reduce growth by 50% (IC50), SW620, 4 day assessment): > 10 µM | IC50 (SW620; SW-620, SW620, Colon, KRAS - MUT, read-out: Mean IC50, single agent): > 10 µM | highest concentration that did not significantly affect growth (SW620; SW620): 5 µM

CC(=O)O[C@@]12CO[C@@H]1C[C@H](O)[C@@]1(C)C(=O)[C@H](O)C3=C(C)[C@@H](OC(=O)[C@H](O)[C@@H](NC(=O)OC(C)(C)C)c4ccccc4)C[C@@](O)([C@@H](OC(=O)c4ccccc4)[C@H]21)C3(C)C [Taxotere®, docetaxel, reference compound]
average number of tumors per injection site [1]: 0.48 | mean tumor volume [1]: 183 mm^3 | emerging resistance: ratio of IC50 to IC50 of parental generation (DMS153): significant increases in IC50 | emerging resistance: ratio of IC50 to IC50 of parental generation (SHP77): significant increases in IC50

CO[C@H]1C[C@@H]2CC[C@@H](C)[C@@](O)(O2)C(=O)C(=O)N2CCCC[C@H]2C(=O)O[C@H]([C@H](C)C[C@@H]2CC[C@@H](OC(=O)C(C)(CO)CO)[C@H](OC)C2)CC(=O)[C@H](C)/C=C(\C)[C@@H](O)[C@@H](OC)C(=O)[C@H](C)C[C@H](C)/C=C/C=C/C=C/1C [Temsirolimus, temsirolimus]
IC50 (U87 glioblastoma cells): 3.6 µM

CCC1=C[C@@H]2CN(C1)Cc1c([nH]c3ccccc13)[C@@](C(=O)OC)(c1cc3c(cc1OC)N(C)[C@H]1[C@@](O)(C(=O)OC)[C@H](OC(C)=O)[C@]4(CC)C=CCN5CC[C@]31[C@@H]54)C2 [Vinorelbine, reference compound]
effect of combination with COTI-2 on proliferation (SHP 77 cells): additive effect | effect of combination with COTI-2 on proliferation (DMS114 cells): additive effect
